# Target: DNA repair and recombination protein RadA (Pyrococcus furiosus (strain ATCC 43587 / DSM 3638 / JCM 8422 / Vc1), UniProt O74036)
# Assay: Thermal Denaturation Assay
# Description: The thermal-shift denaturation assay was performed on an iCycler iQ Real Time Detection System (BioRad) in 96-well iCycler iQ PCR plates sealed with optically clear lids.
row,Kd,Compound
1,2100 µM,Oc1ccc2[nH]ccc2c1
2,2100 µM,"Cc1ccc2[nH]ccc2c1 [Indole, 2]"
3,570 µM,"COC(=O)[C@@H](N)Cc1c[nH]c2ccccc12 [L-Methyl ester tryptophan, 8]"

row,Compound,Kd
1,"c1ccc2[nH]ncc2c1 [Indazole, 5]",1000 µM
